How the values were obtained:
[1] = test system: uteri; test: Rat Uterotrophic/Antiuterotrophic Bioassay (results headed 3-Day Ovariectomized Rat Model); type: in vivo, rat (Sprague-Dawley); settings: 1 μG; Example 12 experiment, control = 31.4 mg
Method: Rat Uterotrophic/Antiuterotrophic Bioassay
Immature Sprague-Dawley rats (female, 18 days old) were tested in groups of six. […] On day 4 the animals were sacrificed by CO2 asphyxiation and their uteri were removed and stripped of excess lipid, any fluid removed and the wet weight determined. A small section of one horn was submitted for histology and the remainder used to isolate total RNA in order to evaluate complement component 3 gene expression.

[2] = test system: Ishikawa cells; test: Ishikawa Cell Alkaline Phosphatase Assay; type: cell-based, human; settings: for % Activation (Compound ± 1 nM 17β-estradiol) (alkaline phosphatase): 10^-6 M compound + 1 nM 17β-estradiol, 48 h (antiestrogen test); for % Activation (alkaline phosphatase): compound alone, 48 h, percent of response related to 1 nM 17β-estradiol
Method: Ishikawa Cell Alkaline Phosphatase Assay
(§1) Cell Maintenance and Treatment
Ishikawa cells were maintained in DMEM/F12 (50%:50%) containing phenol red+10% fetal bovine serum and the medium was supplemented with 2 mM Glutamax, 1% Pen/Strap and 1 mM sodium pyruvate. Five days prior to the beginning of each experiment (treatment of cells) the medium was changed to phenol red-free DMEM/F12+10% dextran coated charcoal stripped serum. On the day before treatment, cells were harvested using 0.5% trypsin/EDTA and plated at a density of 5×10^4 cells/well in 96-well tissue culture plates. […] Cells were treated for 48 h prior to assay. […] Sample population for at each dose was n=8.
Alkaline Phosphatase Assay
At the end of 48 h the media is aspirated and cells are washed three times with phosphate buffered saline (PBS). 50 μL of lysis buffer (0.1 M Tris-HCl, pH 9.8, 0.2% Triton X-100) is added to each well. Plates are placed at -80° C. for a minimum of 15 minutes. Plates are thawed at 37° C. followed by the addition of 150 μL of 0.1 M Tris-HCl, pH 9.8, containing 4 mM para-nitrophenylphosphate (pNPP) to each well (final concentration, 3 mM pNPP).
Absorbance and slope calculations were made using the KineticCalc Application program (Bio-Tek Instruments, Inc., Winooski, Vt.). Results are expressed as the mean +/-S.D. of the rate of enzyme reaction (slope) averaged over the linear portion of the kinetic reaction curve (optical density readings every 5 minutes for 30 minutes absorbance reading).
Various compounds were assayed for estrogenic activity by the alkaline phosphatase method and corresponding ED50 values (95% C.I.) were calculated. The four listed in the following were used as reference standards:
A description of such methods is provided by Holinka, C. F., Hata, H., Kuramoto, H. and Gurpide, E. (1986) Effects of steroid hormones and antisteroids on alkaline phosphatase activity in human endometrial cancer cells (Ishikawa Line). Cancer Research, 46:2771-2774, and by Littlefield, B. A., Gurpide, E., Markiewicz, L., McKinley, B. and by Hochberg, R. B. (1990) A simple and sensitive microtiter plate estrogen bioassay based on stimulation alkaline phosphatase in Ishikawa cells; Estrogen action of D5 adrenal steroids. Endocrinology, 6:2757-2762.

[3] = biological target: T1, estrogen receptor (Homo sapiens, UniProt P03372); test: 2X VIT ERE Transfection (luciferase) Assay in CHO cells; type: cell-based; design: expressed in transfected cells; host or cells: Chinese Hamster Ovary (CHO) cells, stably transfected; settings: for % Activation with 1 nM 17β-estradiol (luciferase): 1 uM compound + 1 nM 17β-estradiol, 24 h (antagonism); for activation at 1 µM: CHO, 24 h
T1 sequence (P03372 1-595): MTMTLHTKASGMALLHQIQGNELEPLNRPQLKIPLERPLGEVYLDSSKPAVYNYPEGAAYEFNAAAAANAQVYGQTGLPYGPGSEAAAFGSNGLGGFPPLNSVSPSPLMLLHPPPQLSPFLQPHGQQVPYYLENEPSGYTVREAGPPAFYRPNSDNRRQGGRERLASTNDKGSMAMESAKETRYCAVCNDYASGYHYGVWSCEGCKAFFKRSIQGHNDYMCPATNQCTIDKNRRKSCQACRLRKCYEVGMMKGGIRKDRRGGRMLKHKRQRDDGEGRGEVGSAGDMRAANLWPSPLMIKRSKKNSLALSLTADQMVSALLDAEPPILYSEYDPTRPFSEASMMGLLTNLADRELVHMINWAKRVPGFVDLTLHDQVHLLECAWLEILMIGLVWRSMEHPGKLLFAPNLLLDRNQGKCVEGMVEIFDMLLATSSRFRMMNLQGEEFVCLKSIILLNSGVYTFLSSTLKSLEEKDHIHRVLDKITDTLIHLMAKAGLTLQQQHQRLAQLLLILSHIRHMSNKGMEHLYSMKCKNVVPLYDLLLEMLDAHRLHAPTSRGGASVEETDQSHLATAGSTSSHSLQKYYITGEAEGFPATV
Method: 2X VIT ERE Transfection Assay
as §1
Chinese Hamster Ovary cells (CHO) which had been stably transfected with the human estrogen receptor were maintained in DMEM+10% fetal bovine serum (FBS). 48 h prior to treatment the growth medium was replaced with DMEM lacking phenol red +10% dextran coated charcoal stripped FBS (treatment medium). Cells were plated at a density of 5000 cells/well in 96-well plates containing 200 μL of medium/well.
Calcium Phoshate Transfection
Reporter DNA (Promega plasmid pGL2 containing two tandem copies of the vitellogenin ERE in front of the minimal thymidine kinase promoter driving the luciferase gene) was combined with the B-galactosidase expression plasmid pCH110 (Pharmacia) and carrier DNA (pTZ18U) in the following ratio:
20 uL of this mixture was added to each well of cells and remained on the cells for 16 h. […] Each treatment condition was performed on 8 wells (n=8) which were incubated for 24 h prior to the luciferase assay.
After removing the PBS, 25 uL of Promega lysis buffer was added to each well and allowed to stand at room temperature for 15 min, followed by 15 min at -80° C. and 15 min at 37° C. 20 uL of lysate was transferred to an opaque 96 well plate for luciferase activity evaluation and the remaining lysate (5 uL) was used for the B-galactosidase activity evaluation (normalize transfection). The luciferan substrate (Promega) was added in 100 uL aliquots to each well automatically by the luminometer and the light produced (relative light units) was read 10 seconds after addition.
To the remaining 5 uL of lysate 45 uL of PBS was added. Then 50 uL of Promega B-galactosidase 2× assay buffer was added, mixed well and incubated at 37° C. for 1 hour. A plate containing a standard curve (0.1 to 1.5 milliunits in triplicate) was set up for each experimental run. The plates were analyzed on a Molecular Devices spectrophotometric plate reader at 410 nm. The optical densities for the unknown were converted to milliunits of activity by mathematical extrapolation from the standard curve.
The luciferase data was generated as relative light units (RLUs) accumulated during a 10 second measurement and automatically transferred to a JMP (SAS Inc) file where background RLUs were subtracted. The B-galactosidase values were automatically imported into the file and these values were divided into the RLUs to normalize the data. The mean and standard deviations were determined from a n=8 for each treatment. […] These techniques are described by Tzukerman, M. T., Esty, A., Santiso-Mere, D., Danielian, P., Parker, M. G., Stein, R. B., Pike, J. W. and McDonnel, D. P. (1994). Human estrogen receptor transactivational capacity was determined by both cellular and promoter context and mediated by two functionally distinct intramolecular regions (see Molecular Endocrinology, 8:21-30).

[4] = biological target: T1, estrogen receptor; test: In Vitro Estrogen Receptor Binding Assay ([3H]-17β-estradiol competition, cytosol of CHO cells overexpressing the estrogen receptor); design: made in house; host or cells: CHO cells overexpressing the receptor; 100,000 g cytosol
Method: In Vitro Estrogen Receptor Bonding Assay
CHO cells overexpressing the estrogen receptor were grown in 150 mm^2 dishes in DMEM+10% dextran coated charcoal, stripped fetal bovine serum. The plates were washed twice with PBS and once with 10 mM Tris-HCl, pH 7.4, 1 mM EDTA. Cells were harvested by scraping the surface and then the cell suspension was placed on ice. Cells were disrupted with a hand-held motorized tissue grinder using two, 10-second bursts. […] The cytosol was then frozen and stored at -80° C. Protein concentration of the cytosol was estimated using the BCA assay with reference standard protein.
100 uG/100 uL of the receptor preparation was aliquoted per well. […] The plate was incubated at room temperature for 2.5 h. […] 200 uL of the supernatant solution was then removed for scintillation counting. Samples were counted to 2% or 10 minutes, whichever occurs first. […] Also, wells containing radioactivity but no cytosol were processed with charcoal to estimate unremovable DPM of [^3 H] […].
Counts per minute (CPM) of radioactivity were automatically converted to disintegrated per minute (DPM) by the Beckman LS 7500 Scintillation Counter using a set of quenched standards to generate a H# for each sample.
((DPM sample-DPM not removed by charcoal)/(DPM estradiol-DPM not removed by charcoal))×100%=% of estradiol binding
For the generation of IC50 curves, % binding is plotted vs compound. […] For a description of these methods, see Hulme, E. C., ed. […] Receptor-Ligand Interactions: A Practical Approach. IRL Press, New York (see especially chapter 8).

Compound	% Activation with 1 nM 17β-estradiol (luciferase) [3] [%]	activation at 1 µM [3] [%]	Estrogen Receptor Affinity (RBA) [4]	uterine wet weight, 1 μG 17β-estradiol [1] [mg]	% Activation (Compound ± 1 nM 17β-estradiol) (alkaline phosphatase) [2] [%]	% Activation (alkaline phosphatase) [2] [%]
C[C@]12CC[C@@H]3c4ccc(O)cc4CC[C@H]3[C@@H]1CC[C@@H]2O [17β-estradiol, reference compound]				89.0		
Cc1c(-c2ccc(O)cc2)n(Cc2ccc(/C=C/C(=O)N3CCCC3)cc2)c2ccc(O)cc12 [Example 9, (E)-Pyrrolidino-3-{4-[5-hydroxy-2-(4-hydroxy-phenyl)-3-methyl-indol-1-ylmethyl]-phenyl}-acrylamide]	8	6			11	3
CCCCN(C)C(=O)/C=C/c1ccc(Cn2c(-c3ccc(O)cc3)c(C)c3cc(O)ccc32)cc1 [Example 12, (E)-N-Butyl. N'-methyl-3-{4-[5-hydroxy-2-(4-hydroxy-phenyl)-3-methyl-indol-1-ylmethyl]-phenyl}-acrylamide]	24	13	114		16	7
Cc1c(-c2ccc(O)cc2)n(Cc2ccc(/C=C/C(=O)N3CCOCC3)cc2)c2ccc(O)cc12 [Example 13]	17	8			9	7

The next lines start with results.

% Activation with 1 nM 17β-estradiol (luciferase) [3] [%]	activation at 1 µM [3] [%]	Estrogen Receptor Affinity (RBA) [4]	Compound	uterine wet weight, 1 μG 17β-estradiol [1] [mg]	% Activation (Compound ± 1 nM 17β-estradiol) (alkaline phosphatase) [2] [%]	% Activation (alkaline phosphatase) [2] [%]
8	4	42	CCN(CC)C(=O)/C=C/c1ccc(Cn2c(-c3ccc(O)cc3)c(C)c3cc(O)ccc32)cc1 [Example 7, (E)-N,N-Diethyl-3-{4-[5-hydroxy-2-(4-hydroxy-phenyl)-3-methyl-indol-1-ylmethyl]-phenyl}-acrylamide]		9	1
78	6	40	Cc1c(-c2ccc(O)cc2)n(Cc2ccc(/C=C/C(=O)NC(C)(C)C)cc2)c2ccc(O)cc12 [Example 8, 1(E)-N-tert-butyl-3-{4-[5-hydroxy-2-(4-hydroxy-phenyl)-3-methyl-indol-1-ylmethyl]-phenyl}-acrylamide]		22	10
2	1	20	Cc1c(-c2ccc(O)cc2)n(Cc2ccc(/C=C/C(=O)N(C)C)cc2)c2ccc(O)cc12 [Example 10, (E)-N,N-Dimethyl-3-{4-[5-hydroxy-2-(4-hydroxy-phenyl)-3-methyl-indol-1-ylmethyl]-phenyl}-acrylamide]		19	6
57	19	32	Cc1c(-c2ccc(O)cc2)n(Cc2ccc(/C=C/C(N)=O)cc2)c2ccc(O)cc12 [Example 14, (E)-3-{4-[5-hydroxy-2-(4-hydroxy-phenyl)-3-methyl-indol-1-ylmethyl]-phenyl}-acrylamide]		14	2
31	15	53	CNC(=O)/C=C/c1ccc(Cn2c(-c3ccc(O)cc3)c(C)c3cc(O)ccc32)cc1 [Example 15, (E)-N,Methyl-3-{4-[5-hydroxy-2-(4-hydroxy-phenyl)-3-methyl-indol-1-ylmethyl]-phenyl}-acrylamide]		5	0

— US5985910A, “3- [4- (2- Phenyl-Indole-1-ylmethyl) Phenyl]- Acrylamides as estrogenic agents” (priority 1997, dated 1999)
